Laboratory results from patent US11872220B2, “Methods and compositions for treating B-cell malignancies” (Janssen Pharmaceutica NV, priority 2021, dated 2024).
“Also recorded” adds a separate entry of the source.

Experiments:
[1] = test system: RelB and Bcl10 cleavage in OCI-Ly3 cell line; assay: Activity of MALT1 inhibitor in OCI-Ly3 cell line, inhibition of RelB and Bcl10 cleavage by Western blotting; format: cell-based; details: 24 hours, with proteasome inhibitor MG132, Western blot
Protocol: OCI-Ly3 cell lines were cultured for 24 hours in combination with proteasome inhibitor MG132 and indicated concentrations of MALTi. Protein lysates were probed for RelB, Bcl10 and actin or vinculin as loading controls.
Western blot analysis was performed using standard techniques. Membranes were probed with the following antibodies: anti-RelB, p-IκBα, Bcl-XL (Cell Signaling), Bcl10 (Abcam), and actin (Santa Cruz Biotechnology). Odyssey Imager (Li-Cor Biosciences) was used as a detection method according to the manufacturer's protocol.
To test MALT1 inhibition in the context of CLL, we investigated CLL functionality under divergent microenvironmental stimulations. […] Proliferation of CLL cells was induced either via CD40 stimulation in combination with IL-21, or by stimulation with CpG in combination with IL-2, IL-15 and IL-21 ([…]). […] Because of the central role of MALT1 in NF-κB signaling, we investigated known targets of NF-κB such as IL-6, IL-10 and TNFα. Both CD40, BCR and TLR9 stimulation induced cytokine secretion of IL-6, IL-10 and TNFα (FIG. 1C-E). […] The role of MALT1 in the BCR and TLR9 pathway has previously been described, but its role in the CD40 pathway is a new observation.

CLL cells [2] = assay: CLL cell viability, flow cytometry with DiOC6 and TO-PRO3; format: cell-based, human; details: 24 hours, DiOC6 and TO-PRO3 staining
Protocol: (§1) FIG. 1A is a bar graph showing the results of an experiment in which CLL cells were treated with the indicated drugs and concentrations and incubated for 24 hours. For the BCR stimulation, cells were supplemented with IL-4 and αIgM. […] Bars represent the mean±SEM. FIG. 1B is a bar graph showing the results of an experiment in which CLL cells were labeled with CellTrace Violet and cultured for 5 days on 3T40 supplemented with IL-21 or on 3T3 in combination with CpG, IL-2, IL-15, and IL-21 in combination with 10 μM MALTi. Proliferation was measured using flow cytometry based on CellTrace Violet signal (n=8). […] Afterwards, culture supernatant was collected and IL-6 (n=14) (FIG. 1C), IL-10 (n=13) (FIG. 1D), and TNFα (n=14) (FIG. 1E) levels were measured using commercial ELISA kits. […] Protein lysates were probed for p-IκBα, Bcl-XL, and actin as loading control.

CLL cells [3] = assay: Proliferation of CLL cells, CellTrace Violet; format: cell-based, human; details: 10 μM MALTi, 5 days; CD40 stimulation + IL-21 or CpG + IL-2, IL-15, IL-21
Protocol: as §1
CLL PBMCs were labeled with CellTrace Violet and either co-cultured with 3T40 fibroblasts and supplemented with IL-21 (25 ng/mL) or stimulated with CpG ODN2006 (1 μg/mL) and supplemented with IL-2, IL-15, and IL-21 (25 ng/mL). CLL cells were cultured for 5 days. […] Samples were measured on a FACS Canto II cytometer (BD Biosciences, San Jose, CA, USA) and proliferation was analyzed using FlowJo software.

[4] = test system: NF-κB-mediated cytokine secretion in CLL cells; assay: Cytokine secretion (IL-6, IL-10, TNFα) of stimulated CLL cells, ELISA; format: cell-based, human; details: CD40, BCR and TLR9 stimulation, 24 hours
Protocol: as §1
(§2) CLL PBMCs were either co-cultured with 3T40 fibroblasts, stimulated with soluble or immobilized anti-IgM (SouthernBiotech, Birmingham, AL, USA) or stimulated with CpG ODN2006 (1 μg/mL) and incubated for 24 hours. Culture supernatant was collected and IL-6, IL-10, and TNFα levels were measured by commercial ELISA kits (Diaclone, Besancon, France). […] Samples were measured on a FACS Canto II cytometer (BD Biosciences, San Jose, CA, USA) and analyzed using FlowJo software.

[5] = test system: NF-κB signaling (p-IκBα, Bcl-XL) in CLL cells; assay: Western blot of p-IκBα and Bcl-XL in stimulated CLL cells; format: cell-based, human; details: 10 μM MALTi, 24 hours
Protocol: as §1
Western blot analysis was performed using standard techniques. […]
as §2

[6] = test system: Bcl-2 family members Bcl-XL, Mcl-1 and Bcl-2 in CLL cells; assay: Expression of Bcl-XL, Mcl-1 and Bcl-2 in stimulated CLL cells, intracellular flow cytometry; format: cell-based, human; details: CD40, BCR or TLR9 stimulation, 10 μM MALTi, 24 hours
Protocol: Afterwards, expression of Bcl-XL (n=13) (FIG. 2A).
CLL PBMCs were either co-cultured with 3T40 fibroblasts, stimulated with soluble or immobilized anti-IgM (SouthernBiotech, Birmingham, AL, USA) or stimulated with CpG ODN2006 (1 μg/mL) and incubated for 24 hours. Culture supernatant was collected and IL-6, IL-10, and TNFα levels were measured by commercial ELISA kits (Diaclone, Besancon, France). Intracellular flow cytometry staining was performed using Cytofix/Cytoperm according to manufacturer's protocol (BD Biosciences). Cells were stained with the following antibodies: anti-Bcl-XL-FITC, Mcl-1-PE, and Bcl-2-BV421 (BD Biosciences). Samples were measured on a FACS Canto II cytometer (BD Biosciences, San Jose, CA, USA) and analyzed using FlowJo software.

[7] = test system: CLL-derived and healthy T cells; assay: T cell stimulation with anti-CD3/CD28: activation, proliferation, degranulation, cytokine secretion; format: cell-based, human
Protocol: Afterwards, cells were measured using flow cytometry. FIG. 3A are bar graphs showing T cell activation measured based on CD25. […] FIG. 3C are bar graphs showing T cell proliferation measured based on CellTrace Violet signal. FIG. 3D are bar graphs showing T cell degranulation measured in CLL (n=13) and healthy (n=3) T cells based on CD107a. After incubation, culture supernatant was collected and IFNγ (n=12) and TNFα (n=9) levels were measured using commercial ELISA kits (FIG. 3E).
(§3) CLL or healthy donor PBMCs were labeled with CFSE or CTV and stimulated with anti-CD3 (clone 1XE) and anti-CD28 (clone 15E8) antibodies for 4 days. Culture supernatant was collected and IFNγ (ThermoFisher) and TNFα (Diaclone) levels were measured by commercial ELISA kits. The activation/proliferation panel consisted of the following antibodies: CD3-μF700 (eBioscience), CD4-PE-Cy7, CD8-PerCpCy5.5, CD25-APC (BD Bioscience). The differentiation panel consisted of the following antibodies: CD27/CCR7-PerCP-eFluor710 or (eBioscience), CD4-PE-Cy7, CD8-BV786, CD25-PE, CD45RA-BV650, and FoxP3-APC (BD Biosciences). The cytotoxicity panel consisted of the following antibodies: CD107a-FITC (eBioscience), CD4-PerCPeF710, CD8-BV786, CD25-PE, and PD1-PE-Cy7 (BD Biosciences). Samples were measured on a FACS Canto II cytometer (BD Biosciences, San Jose, CA, USA) and analyzed using FlowJo software.

[8] = test system: T cell subsets in CLL and healthy donor PBMCs; assay: T cell differentiation and subset distribution, flow cytometry; format: cell-based, human
Protocol: (§4) Afterwards, T cell subsets were measured using flow cytometry as described. […] Afterwards, T cell subsets were measured using flow cytometry based on CD27 and CD45RA. Naïve T cells were gated as CD27^+/CD45RA^+, central memory T cells were gated as CD27^+/CD45RA^−, memory T cells were gated as CD27^−/CD45RA^−, and terminally differentiated effector memory cells re-expressing CD45RA T cells were gated as CD27^−/CD45RA^+. […] Afterwards, regulatory T cells were measured using flow cytometry and gated as CD4^+/CD25^+/FoxP3^+. Bars represent the mean±SEM, *p<0.05, ***p<0.001 (paired sample t-test).
as §3, with “The cytotoxicity panel consisted of the following antibodies: CD107a-FITC (eBioscience), CD4-PerCPeF710, CD8-BV786, CD25-PE, and PD1-PE-Cy7 (BD Biosciences).” left out

[9] = test system: CD4+/CD25+/FoxP3+ regulatory T cells; assay: Regulatory T cell population in unstimulated PBMCs, flow cytometry; format: cell-based, human; details: unstimulated CLL and healthy donor PBMCs, 4 days
Protocol: as §4
as §3, with “The cytotoxicity panel consisted of the following antibodies: CD107a-FITC (eBioscience), CD4-PerCPeF710, CD8-BV786, CD25-PE, and PD1-PE-Cy7 (BD Biosciences).” left out

OCI-LY3 DLBCL CDX model = assay: In vivo efficacy in OCI-LY3 model, tumor growth inhibition; parameters: species or system NOD/SCID mice; details: for tumor growth inhibition (TGI): oral, 12 days post treatment; for in vivo growth of OCI-LY3 DLBCL CDX model (efficacy in words): OCI-LY3 model (CARD11 mut)
[10] = test system: IL-10, TNF-α, IL12p70, IL-6 in serum; assay: Serum cytokine secretion in OCI-LY3 tumor bearing mice, Mesoscale assay; format: in vivo, NOD/SCID mice
Protocol: Tumor and Serum Samples Collection on Study Termination. Whole blood samples were collected from all groups at 6 hours post the final dose. Serum samples were isolated from all groups were collected and stored at −80° C. Tumor tissues were collected from all of groups when study was terminated, and split into 2 pieces, take weights, processed to snap frozen and stored in 2 separated tubes.
Tumor and Serum Samples Collection on Study Termination. NF-κB signaling regulates the secretion of multiple cytokines, including interleukin (IL)-6 and IL-10. Secretion of the cytokines (IL-10, TNF-α, IL12p70, and IL-6) in serum samples of OCI-LY3 animals was measured by using a Mesoscale assay (MSD). For in vivo efficacy study, serum samples were isolated from all tumor bearing mice at 6 hours post the final dose of the MALT1 inhibitor of Formula I. For in vivo Pharmacodynamic (PD) experiment, serum samples were isolated from all tumor bearing mice (tumor volume around 700 mm3) at 8 hours post treatment with the MALT1 inhibitor of Formula I (BID dosing). Serum samples were transferred to an MSD plate (V-Plex Proinflammation Panel 1 [human] kit) and incubated for 2 hours at RT followed by a 2-hour incubation with cytokine antibody solution. Plates were read on a SECTOR imager.

CLL cells [11] = details: CD40-, BCR- or TLR9-stimulated, 10 μM MALTi, BH3 mimetic for additional 24 hours
Protocol: FIGS. 2A-2C are bar graphs showing the results of experiments in which CLL cells were cultured for 24 hours on 3T40, stimulated with IL-4 and αIgM (soluble or immobilized to beads) or stimulated with CpG, and incubated for 24 hours in combination with 10 μM MALTi. […] FIGS. 2D-2I) are graphs showing the results of experiments in which, in parallel, CD40-stimulated (n=9) (FIGS. 2D-2E), BCR-stimulated (n=8) (FIGS. 2F-2G), and TLR9-stimulated (n=6) (FIGS. 2H-2I) cells were with venetoclax or S63 for an additional 24 hours. Viability was measured using flow cytometry using DiOC6 and TO-PRO3 viability staining. […]
Lymphocytes of CLL patients were co-cultured with NIH3T3 fibroblasts stably transfected with human CD40L (3T40) or negative control (3T3) as described before (Urashima et al., “CD40 Ligand Triggered Interleukin-6 Secretion in Multiple Myeloma,” Blood 85(7):1903-1912 (1995) and Schultze et al., “CD40-Activated Human B Cells: An Alternative Source of Highly Efficient Antigen Presenting Cells to Generate Autologous Antigen-Specific T Cells for Adoptive Immunotherapy,” J. Clin. Invest. 100(11):2757-2765 (1997). After 24 hours, cells were detached and incubated with or without drugs for an additional 24 hours. CLL cell viability was measured by flow cytometry using DioC6 and TO-PRO-3 viability dyes. […]

SMILES: O=C(Nc1ccnc(C(F)(F)F)c1)c1cnn(-c2cccc3c(=O)[nH]ccc23)c1C(F)(F)F [MALT1 inhibitor of Formula I, 1-(1-oxo-1,2-dihydroisoquinolin-5-yl)-5-(trifluoromethyl)-N-[2-(trifluoromethyl)pyridin-4-yl]-1H-pyrazole-4-carboxamide]
- inhibition of RelB and Bcl10 cleavage [1]: confirmed activity
- direct cell death in CLL cells (viability) (CLL cells [2]): did not induce direct cell death
- proliferation of CLL cells (CLL cells [3]): reduced both types of proliferation but did not fully block the proliferation
- NF-κB-mediated cytokine secretion (IL-6, IL-10, TNFα) [4]: decreased NF-κB-mediated cytokine secretion in all conditions and was most effective in CD40-stimulated cells
- Bcl-XL expression, Western blot ([5]; BCR stimulation with soluble or immobilized anti-IgM or TLR9 stimulation via CpG): inhibition of Bcl-XL expression was also observed
- p-IκBα and Bcl-XL, Western blot ([5]; CD40-stimulated (3T40) CLL cells): a decrease in p-IκBα and the NF-κB target Bcl-XL
- expression of Bcl-XL, flow cytometry [6]: inhibited
- expression of Mcl-1 and Bcl-2, flow cytometry [6]: not significantly affected
- CD107a (LAMP-1) expression, T cell degranulation ([7]; anti-CD3/CD28, 4 days): reduced
- IFNγ and TNFα cytokine secretion ([7]; anti-CD3/CD28, 4 days, ELISA): significantly inhibited
- concentrations at which in vitro T cell activation is impaired ([7]; anti-CD3/CD28 stimulated T cells): > 1 µM
- T cell activation and proliferation (CD25, PD-1, CellTrace Violet) ([7]; soluble anti-CD3/CD28, 4 days, CD4 and CD8 T cells, CLL and healthy donors): significantly reduced
- T cell subset distribution (differentiation) ([8]; stimulated with anti-CD3/CD28, 4 days, increasing concentrations): reverted the T cell subset distribution back to the phenotype seen in unstimulated cells
- T cell subset distribution ([8]; unstimulated cells, 4 days): did not affect T cell subset distribution
- CD4+/CD25+/FoxP3+ T cells [9]: specific significant decrease
- tumor growth inhibition (TGI) (OCI-LY3 DLBCL CDX model; 30 mg/kg BID): 41.31%
- TGI (OCI-LY3 DLBCL CDX model; 30 mg/kg, BID as printed, (second line of Table 4)): 69.92%
- TGI (OCI-LY3 DLBCL CDX model; 30 mg/kg, BID, (first line of Table 4)): 41.31%
- tumor growth inhibition (TGI) (OCI-LY3 DLBCL CDX model; 100 mg/kg BID): 69.92%
- in vivo growth of OCI-LY3 DLBCL CDX model (efficacy in words) (OCI-LY3 DLBCL CDX model): moderately inhibits in vivo growth
- IL-10, TNF-α, and IL12p70 secretion levels in serum ([10]; 6 hours post final dose): decrease IL-10, TNF-α, and IL12p70 secretion levels; also recorded: downregulate IL-10, TNF-α and IL12p70 secretion
- sensitivity of stimulated CLL cells to venetoclax and S63 with concurrent MALT1 inhibition (CLL cells [11]): a shift towards venetoclax and S63 sensitivity in all these conditions

SMILES: CC1(C)CCC(CN2CCN(c3ccc(C(=O)NS(=O)(=O)c4ccc(NCC5CCOCC5)c([N+](=O)[O-])c4)c(Oc4cnc5[nH]ccc5c4)c3)CC2)=C(c2ccc(Cl)cc2)C1 [Venetoclax, 4-[4-[[2-(4-chlorophenyl)-4,4-dimethylcyclohexen-1-yl]methyl]piperazin-1-yl]-N-[3-nitro-4-(oxan-4-ylmethylamino)phenyl]sulfonyl-2-(1H-pyrrolo[2,3-b]pyridin-5-yloxy)benzamide, reference compound]
- tumor growth inhibition (TGI) (OCI-LY3 DLBCL CDX model; 40 mg/kg QD): 0.98%
- TGI (OCI-LY3 DLBCL CDX model; 40 mg/kg, QD): 0.98%
- in vivo growth of OCI-LY3 DLBCL CDX model (efficacy in words) (OCI-LY3 DLBCL CDX model): did not show any efficacy
- cytokine secretion levels in serum (IL-10, TNFα, IL12p70, IL6) ([10]; monotherapy): didn't show effect
